Test results published in the Deep4Chem optical property database.
One block for each molecule: values may come before it.

Test: photoluminescence quantum yield (fraction); solvent given as SMILES

- photoluminescence quantum yield (in CC#N): 0.16
- photoluminescence quantum yield (in CO): 0.02
- photoluminescence quantum yield (in CS(C)=O): 0.12
- photoluminescence quantum yield (in ClC(Cl)Cl): 0.18
Compound: O=C1c2ccccc2-c2cc3ccccc3c(=O)n21

- photoluminescence quantum yield (in ClC(Cl)Cl): 0
Compound: CCCCCCN1C(=O)c2cccc3c(-c4ccc([N+](=O)[O-])s4)ccc(c23)C1=O

- photoluminescence quantum yield (in CC#N): 0.33
- photoluminescence quantum yield (in CCCCCC): 0.411
- photoluminescence quantum yield (in CO): 0.207
- photoluminescence quantum yield (in ClC(Cl)Cl): 0.439
Compound: c1ccc2c(-c3cc(-c4nccs4)nc(-c4nccs4)c3)cccc2c1

- photoluminescence quantum yield (in C1COCCO1): 0.17
Compound: CCCCN(CCCC)c1ccc(/C=C/c2ccc3nc(-c4ccccc4)c(/C=C/c4ccc(N(C)C)cc4)nc3c2)cc1

- photoluminescence quantum yield (in ClC(Cl)Cl): 0.45
Compound: CCCCC1(c2ccccc2)Nc2c(-c3ccc(OC)cc3)ccc(-c3ccc(OC)cc3)c2N=C1c1ccccc1 (configuration not stated)

- photoluminescence quantum yield (in ClCCl): 0.4
Compound: CCN(CC)c1ccc2c(-c3ccccc3C(=O)O)c3c([o+]c2c1)/C(=C/c1nc(-c2ccccc2)n2ccccc12)CCC3

- photoluminescence quantum yield (in CC#N): 0.09
- photoluminescence quantum yield (in CO): 0.034
- photoluminescence quantum yield (in ClC(Cl)Cl): 0.055
- photoluminescence quantum yield (in c1ccccc1): 0.08
Compound: CC(C)(C)C1Nc2ccccc2C(=O)N1Cc1ccccc1 (configuration not stated)

- photoluminescence quantum yield (in ClCCl): 0.36
Compound: O=P1(c2ccccc2)c2cccc3ccc4ccc1n4c23 (configuration not stated)

- photoluminescence quantum yield (in C1CCCCC1): 0.931
- photoluminescence quantum yield (in CCOC(C)=O): 0.685
- photoluminescence quantum yield (in CN(C)C=O): 0.37
- photoluminescence quantum yield (in CO): 0.294
- photoluminescence quantum yield (in ClCCl): 0.829
Compound: CCN(CC)c1ccc2c(c1)oc(=O)c1c(C)nc3c(cnn3-c3ccccc3)c12

- photoluminescence quantum yield (in ClCCl): 0.36
Compound: CCCCCCN1C(=O)c2cccc3c(-c4ccc(-c5cc(-c6ccc(C)cc6)n(-c6ccccc6)n5)s4)ccc(c23)C1=O

- photoluminescence quantum yield (in ClCCl): 0.75
Compound: CCCCn1c(-c2ccc(-c3nnc(-c4ccc5ccccc5c4)o3)cc2)nc2c3ccccc3c3ccccc3c21

- photoluminescence quantum yield (in CC#N): 0.63
- photoluminescence quantum yield (in ClCCl): 0.83
Compound: COC(=O)c1cc(=O)n(C)c2cc(-c3ccc(Oc4ccccc4)cc3)sc12

The next lines start with the molecule.

Compound: O=[N+]([O-])c1ccc(S(=O)(=O)Nc2ccc(C#Cc3ccc4ccc5ccc(C#Cc6ccc(NS(=O)(=O)c7ccc([N+](=O)[O-])cc7[N+](=O)[O-])cc6)c6ccc3c4c56)cc2)c([N+](=O)[O-])c1
- photoluminescence quantum yield (in CO): 0.003

Compound: Fc1ccc(-c2ccc(-c3cc(-c4ccccn4)nc(-c4ccccn4)c3)cc2)c(F)c1
- photoluminescence quantum yield (in ClCCl): 0.16

Compound: CCCCC1=Cc2c3ccc4cccc5ccc(c6cc(-c7ccccc7)n(c26)P1(=O)c1ccccc1)c3c45 (configuration not stated)
- photoluminescence quantum yield (in C1CCCCC1): 0.64
- photoluminescence quantum yield (in C1CCOC1): 0.51
- photoluminescence quantum yield (in C1COCCO1): 0.55
- photoluminescence quantum yield (in CC#N): 0.54
- photoluminescence quantum yield (in CC(C)=O): 0.56
- photoluminescence quantum yield (in CO): 0.51
- photoluminescence quantum yield (in Cc1ccccc1): 0.6
- photoluminescence quantum yield (in ClC(Cl)Cl): 0.56
- photoluminescence quantum yield (in ClCCl): 0.57

Compound: O=C1CCCC2=C1CC1=C(CCCC1=O)N2NC(=O)c1ccccc1
- photoluminescence quantum yield (in C1CCOC1): 0.33
- photoluminescence quantum yield (in CC#N): 0.46
- photoluminescence quantum yield (in CC(C)=O): 0.42
- photoluminescence quantum yield (in CCCCCO): 0.42
- photoluminescence quantum yield (in CO): 0.34
- photoluminescence quantum yield (in ClC(Cl)Cl): 0.62
- photoluminescence quantum yield (in ClCCl): 0.31

Compound: N#Cc1cc2nc3c(nc2cc1C#N)C1c2ccc(N(c4ccccc4)c4ccccc4)cc2C3c2ccc(N(c3ccccc3)c3ccccc3)cc21
- photoluminescence quantum yield (in C1CCCCC1): 0.44
- photoluminescence quantum yield (in CC#N): 0.01
- photoluminescence quantum yield (in Cc1ccccc1): 0.35
- photoluminescence quantum yield (in ClCCl): 0.02

Compound: COc1ccccc1C1=[N+]2C(=Cc3c4cc5ccccc5cc4c(-c4ccccc4OC)n3[B-]2(F)F)c2cc3ccccc3cc21
- photoluminescence quantum yield (in C1CCOC1): 0.29

Compound: O=c1c2cc(F)c(O)cc2oc2cc(O)c(F)cc12
- photoluminescence quantum yield (in CCO): 0.26

Compound: Cc1cc(C)n2c1C=[N+]1[N+](=C3C=NC=CN3[B-]1(F)F)[B-]2(F)F
- photoluminescence quantum yield (in ClCCl): 0.57

Compound: CCCCC(CC)CN1C(=O)c2cccc3c(C#Cc4ccc(N(c5ccccc5)c5ccccc5)cc4)ccc(c23)C1=O (configuration not stated)
- photoluminescence quantum yield (in C1CCCCC1): 0.66
- photoluminescence quantum yield (in C1CCOC1): 0.62
- photoluminescence quantum yield (in CC#N): 0.026
- photoluminescence quantum yield (in Cc1ccccc1): 0.89
- photoluminescence quantum yield (in ClC(Cl)Cl): 0.51

Compound: COCc1ncc(-c2c3ccccc3c(-c3cnc(COC)nc3)c3ccccc23)cn1
- photoluminescence quantum yield (in CCO): 0.89
- photoluminescence quantum yield (in ClCCl): 0.83

Compound: CN(C)c1ccc2nc(-c3ccc(C(=O)OC(C)(C)C)cc3)sc2c1
- photoluminescence quantum yield (in C1CCCCC1): 0.84
- photoluminescence quantum yield (in CC#N): 0.81
- photoluminescence quantum yield (in CC(C)O): 0.84
- photoluminescence quantum yield (in CO): 0.72
- photoluminescence quantum yield (in CS(C)=O): 0.91
- photoluminescence quantum yield (in ClC(Cl)Cl): 0.87
- photoluminescence quantum yield (in c1ccccc1): 0.85

Compound: CN(C)c1cc(C#N)c(N(C)C)c(C#N)c1
- photoluminescence quantum yield (in C1CCCCC1): 0.37
- photoluminescence quantum yield (in C1CCOC1): 0.54
- photoluminescence quantum yield (in C1COCCO1): 0.55
- photoluminescence quantum yield (in CC1COC(=O)O1): 0.58
- photoluminescence quantum yield (in CC#N): 0.53
- photoluminescence quantum yield (in CC(C)=O): 0.51
- photoluminescence quantum yield (in CC(C)OC(C)C): 0.39
- photoluminescence quantum yield (in CCC#N): 0.47
- photoluminescence quantum yield (in CCC(C)C): 0.37
- photoluminescence quantum yield (in CCCCCC): 0.38
- photoluminescence quantum yield (in CCCCCCCCO): 0.58
- photoluminescence quantum yield (in CCCCCOCCCCC): 0.46
- photoluminescence quantum yield (in CCCCOC(C)=O): 0.52
- photoluminescence quantum yield (in CCCCOCCCC): 0.45
- photoluminescence quantum yield (in CCCOCCC): 0.55
- photoluminescence quantum yield (in CCO): 0.51
- photoluminescence quantum yield (in CCOC(C)=O): 0.49
- photoluminescence quantum yield (in CCOCC): 0.46
- photoluminescence quantum yield (in CN(C)C=O): 0.57
- photoluminescence quantum yield (in CO): 0.52
- photoluminescence quantum yield (in CS(C)=O): 0.55
- photoluminescence quantum yield (in Cc1ccccc1): 0.55
- photoluminescence quantum yield (in ClCCCl): 0.52
- photoluminescence quantum yield (in ClCCl): 0.57
- photoluminescence quantum yield (in N#Cc1ccccc1): 0.5
- photoluminescence quantum yield (in O): 0.47
- photoluminescence quantum yield (in OCC(O)CO): 0.54
- photoluminescence quantum yield (in c1ccccc1): 0.57

Compound: Cc1ccc(C#Cc2ccc3nc4ccc(C#Cc5ccc(C)cc5)cn4c(=O)c3c2)cc1
- photoluminescence quantum yield (in ClCCl): 0.43

Compound: O=P1(c2ccccc2)C(c2ccc(C(F)(F)F)cc2)=Cc2ccccc21 (configuration not stated)
- photoluminescence quantum yield (in C1CCOC1): 0.65

Compound: CCCCN1C(=O)c2cc(Oc3ccc(C(C)(C)C)cc3)c3c4c(Oc5ccc(C(C)(C)C)cc5)cc5c(=O)[nH]/c(=C\c6ccccn6)c6cc(Oc7ccc(C(C)(C)C)cc7)c(c7c(Oc8ccc(C(C)(C)C)cc8)cc(c2c37)C1=O)c4c56
- photoluminescence quantum yield (in C1CCOC1): 0.336
- photoluminescence quantum yield (in Cc1ccccc1): 0.408
- photoluminescence quantum yield (in ClCCl): 0.421

Compound: CC1(C)c2ccccc2N(c2ccccc2)c2ccc(-c3ccc(S(=O)(=O)c4ccc(-c5ccc6c(c5)C(C)(C)c5ccccc5N6c5ccccc5)cc4)cc3)cc21
- photoluminescence quantum yield (in O=P(c1ccccc1)(c1ccccc1)c1ccccc1Oc1ccccc1P(=O)(c1ccccc1)c1ccccc1): 0.87

Compound: CC(C)(C)c1ccc2c(c1)c1cc(C(C)(C)C)ccc1n2-c1cc(C(=O)c2cccnc2)cc(-n2c3ccc(C(C)(C)C)cc3c3cc(C(C)(C)C)ccc32)c1
- photoluminescence quantum yield (in Cc1ccccc1): 0.07
- photoluminescence quantum yield (in c1cc(-c2cccc(-n3c4ccccc4c4ccccc43)c2)cc(-n2c3ccccc3c3ccccc32)c1): 0.92

Compound: Nc1ccc2cn[nH]c2c1
- photoluminescence quantum yield (in C1CCCCC1): 0.34
- photoluminescence quantum yield (in CC#N): 0.33
- photoluminescence quantum yield (in CO): 0.31
- photoluminescence quantum yield (in O): 0.39

Compound: N#Cc1nc(N(Cc2ccc(Cl)cc2)Cc2ccc(Cl)cc2)c(C#N)nc1N(Cc1ccc(Cl)cc1)Cc1ccc(Cl)cc1
- photoluminescence quantum yield (in ClC(Cl)Cl): 0.71

Compound: O=S(=O)(c1cccc(N2c3ccccc3Sc3ccccc32)c1)c1cccc(N2c3ccccc3Sc3ccccc32)c1
- photoluminescence quantum yield (in CCCCC(CC)n1c2ccc(-n3c4ccccc4c4ccccc43)cc2c2cc(-n3c4ccccc4c4ccccc43)ccc21): 0.082
- photoluminescence quantum yield (in c1cc(-n2c3ccccc3c3ccccc32)cc(-n2c3ccccc3c3ccccc32)c1): 0.116

Compound: COc1ccc(/C=C/c2nc3ccccc3o2)cc1
- photoluminescence quantum yield (in C1CCCCC1): 0.006
- photoluminescence quantum yield (in CO): 0.001

Compound: CCCCCCCCC1(CCCCCCCC)c2ccccc2-c2ccc(-c3nnc(-c4ccc(-n5c6ccc(C(C)(C)C)cc6c6cc(C(C)(C)C)ccc65)cc4)o3)cc21
- photoluminescence quantum yield (in Cc1ccccc1): 0.88

Compound: Cc1cccc(C)c1
- photoluminescence quantum yield (in C1CCCCC1): 0.25
